# Tests used:
# Human HDAC1 = Human HDAC1 (Homo sapiens (Human), UniProt Q13547); test: HDAC1 fluorogenic peptide deacetylation assay; format: biochemical; details: human HDAC1, 50 μM substrate, 30° C., 2 h; read-out: IC50 (nM) of enzyme activity HDAC1
# Human HDAC2 = Human HDAC2 (Homo sapiens (Human), UniProt Q92769); test: HDAC2 fluorogenic peptide deacetylation assay; format: biochemical; details: human HDAC2, 50 μM substrate, 30° C., 2 h; read-out: IC50 (nM) of enzyme activity HDAC2
# Human HDAC3/NcoR2 = Human HDAC3/NcoR2 (Homo sapiens (Human), UniProt O15379); test: HDAC3 fluorogenic peptide deacetylation assay; format: biochemical; details: human HDAC3/NcoR2, 50 μM substrate, 30° C., 2 h; read-out: IC50 (nM) of enzyme activity HDAC3
# Chain of Human HDAC3/NcoR2 (O15379 whole entry): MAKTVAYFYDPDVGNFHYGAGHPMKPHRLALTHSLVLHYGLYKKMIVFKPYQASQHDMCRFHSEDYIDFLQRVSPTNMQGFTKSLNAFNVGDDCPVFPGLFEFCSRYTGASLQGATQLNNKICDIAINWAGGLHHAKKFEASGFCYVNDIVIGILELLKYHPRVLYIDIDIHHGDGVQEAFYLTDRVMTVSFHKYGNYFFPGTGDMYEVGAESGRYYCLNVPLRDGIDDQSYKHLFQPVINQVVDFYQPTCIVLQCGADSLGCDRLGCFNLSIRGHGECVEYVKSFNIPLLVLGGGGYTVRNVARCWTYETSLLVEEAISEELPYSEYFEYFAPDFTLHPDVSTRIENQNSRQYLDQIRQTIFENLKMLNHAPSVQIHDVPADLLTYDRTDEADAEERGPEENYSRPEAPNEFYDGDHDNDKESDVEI
# Chain of Human HDAC3/NcoR2 (Q9Y618 395-489 partner): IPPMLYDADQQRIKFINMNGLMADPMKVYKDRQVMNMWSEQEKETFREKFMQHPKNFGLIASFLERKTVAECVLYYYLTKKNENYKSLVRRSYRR
# Human HDAC8 = Human HDAC8 (Homo sapiens (Human), UniProt Q9BY41); test: HDAC8 fluorogenic peptide deacetylation assay; format: biochemical; details: human HDAC8, 50 μM substrate, 30° C., 2 h; read-out: IC50 (nM) of enzyme activity HDAC8
# Chain of Human HDAC8 (Q9BY41 whole entry): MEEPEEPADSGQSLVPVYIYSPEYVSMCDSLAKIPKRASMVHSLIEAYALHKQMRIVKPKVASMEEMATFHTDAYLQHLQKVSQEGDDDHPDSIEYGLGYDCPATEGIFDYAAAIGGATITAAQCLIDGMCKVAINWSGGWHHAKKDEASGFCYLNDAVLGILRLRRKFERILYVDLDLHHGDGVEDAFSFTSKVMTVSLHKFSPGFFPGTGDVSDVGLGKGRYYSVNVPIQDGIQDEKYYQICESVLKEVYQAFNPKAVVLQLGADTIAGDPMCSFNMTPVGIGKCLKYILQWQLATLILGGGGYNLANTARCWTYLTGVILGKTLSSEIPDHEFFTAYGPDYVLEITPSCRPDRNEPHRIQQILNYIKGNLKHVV
# [1] = system: Nuclear Extract from HeLa Cells; test: HeLa Nuclear Extract HDAC assay; format: biochemical, human; details: 50 μM substrate, 30° C., 2 h, read-out: IC50 (nM) of enzyme activity HeLa
# Human HDAC6 = Human HDAC6 (Homo sapiens (Human), UniProt Q9UBN7); test: HDAC6 fluorogenic peptide deacetylation assay; format: biochemical; details: human HDAC6, 50 μM substrate, 30° C., 2 h; read-out: IC50 (nM) of enzyme activity HDAC6
# Chain of Human HDAC6 (Q9UBN7 whole entry): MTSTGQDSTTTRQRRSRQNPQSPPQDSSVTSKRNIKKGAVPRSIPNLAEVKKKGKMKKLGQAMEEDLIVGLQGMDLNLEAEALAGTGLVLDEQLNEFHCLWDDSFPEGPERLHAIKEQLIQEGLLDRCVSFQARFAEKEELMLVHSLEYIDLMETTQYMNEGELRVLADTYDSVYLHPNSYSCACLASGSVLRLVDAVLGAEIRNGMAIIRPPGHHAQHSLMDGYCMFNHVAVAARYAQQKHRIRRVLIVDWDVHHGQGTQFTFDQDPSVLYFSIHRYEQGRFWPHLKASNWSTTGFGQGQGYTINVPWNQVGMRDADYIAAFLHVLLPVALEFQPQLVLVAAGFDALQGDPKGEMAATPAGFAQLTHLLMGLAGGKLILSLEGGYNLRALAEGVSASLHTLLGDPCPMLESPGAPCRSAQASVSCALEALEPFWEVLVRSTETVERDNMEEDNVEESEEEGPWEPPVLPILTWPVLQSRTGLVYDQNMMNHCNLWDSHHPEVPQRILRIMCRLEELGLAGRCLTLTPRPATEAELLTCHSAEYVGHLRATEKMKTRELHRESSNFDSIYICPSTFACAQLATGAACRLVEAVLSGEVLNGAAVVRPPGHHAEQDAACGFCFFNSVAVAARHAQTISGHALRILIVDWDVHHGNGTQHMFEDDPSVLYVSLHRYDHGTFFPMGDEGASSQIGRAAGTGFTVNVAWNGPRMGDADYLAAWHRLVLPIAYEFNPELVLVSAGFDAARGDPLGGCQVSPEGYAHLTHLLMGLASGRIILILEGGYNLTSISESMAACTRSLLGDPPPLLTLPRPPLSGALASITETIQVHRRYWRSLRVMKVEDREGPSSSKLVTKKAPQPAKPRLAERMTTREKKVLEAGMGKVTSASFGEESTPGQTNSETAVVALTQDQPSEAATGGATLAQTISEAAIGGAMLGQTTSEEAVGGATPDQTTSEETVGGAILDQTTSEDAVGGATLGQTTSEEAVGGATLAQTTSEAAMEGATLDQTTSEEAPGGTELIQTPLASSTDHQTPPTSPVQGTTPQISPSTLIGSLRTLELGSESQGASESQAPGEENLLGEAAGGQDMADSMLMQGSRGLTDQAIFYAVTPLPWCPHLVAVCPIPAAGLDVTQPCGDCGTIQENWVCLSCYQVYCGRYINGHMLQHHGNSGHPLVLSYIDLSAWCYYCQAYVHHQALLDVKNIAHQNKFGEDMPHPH
# [2] = molecular target: histone deacetylase from rat liver; test: Rat liver HDAC assay; format: biochemical; details: Boc-Lys(Ac)-AMC substrate, 30° C., 2 h, read-out: IC50 (nM) of enzyme activity Rat liver
# Chain of Human HDAC2 (Q92769 whole entry): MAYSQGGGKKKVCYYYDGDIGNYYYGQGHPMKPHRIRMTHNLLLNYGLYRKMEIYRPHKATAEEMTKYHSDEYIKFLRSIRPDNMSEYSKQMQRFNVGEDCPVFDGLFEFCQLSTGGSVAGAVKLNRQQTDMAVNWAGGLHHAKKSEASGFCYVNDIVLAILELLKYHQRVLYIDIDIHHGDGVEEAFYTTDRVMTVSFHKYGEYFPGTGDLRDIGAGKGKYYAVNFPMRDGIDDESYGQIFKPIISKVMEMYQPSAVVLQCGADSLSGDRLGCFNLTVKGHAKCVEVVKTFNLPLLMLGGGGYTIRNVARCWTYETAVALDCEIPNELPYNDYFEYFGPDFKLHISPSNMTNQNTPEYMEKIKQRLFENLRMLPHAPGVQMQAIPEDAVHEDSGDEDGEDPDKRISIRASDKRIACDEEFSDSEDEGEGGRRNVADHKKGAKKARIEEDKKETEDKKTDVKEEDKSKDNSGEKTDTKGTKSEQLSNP
# Chain of Human HDAC1 (Q13547 whole entry): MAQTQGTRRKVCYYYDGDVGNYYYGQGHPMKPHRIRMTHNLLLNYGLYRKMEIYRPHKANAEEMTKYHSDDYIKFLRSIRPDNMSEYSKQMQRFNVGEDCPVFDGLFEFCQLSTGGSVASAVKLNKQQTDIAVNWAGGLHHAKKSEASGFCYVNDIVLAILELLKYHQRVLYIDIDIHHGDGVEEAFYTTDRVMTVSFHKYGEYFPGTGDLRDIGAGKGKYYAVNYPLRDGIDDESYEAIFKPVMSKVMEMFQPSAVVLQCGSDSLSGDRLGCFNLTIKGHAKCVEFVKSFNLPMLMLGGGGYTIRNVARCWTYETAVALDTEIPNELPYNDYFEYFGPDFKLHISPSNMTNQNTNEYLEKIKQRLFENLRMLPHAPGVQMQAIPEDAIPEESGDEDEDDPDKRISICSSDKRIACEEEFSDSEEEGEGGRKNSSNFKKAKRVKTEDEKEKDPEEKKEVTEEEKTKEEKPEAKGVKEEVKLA
SMILES,IC50 (Human HDAC1),IC50 (Human HDAC2),IC50 (Human HDAC3/NcoR2),IC50 (Human HDAC8),IC50 [1],melting point,IC50 (Human HDAC6),IC50 [2]
"O=C(NO)c1ccc(CNC(=O)c2[nH]c(-c3cccs3)cc2-c2ccc(F)cc2)nc1 [Example 11, 6-[({[3-(4-fluorophenyl)-5-(2-thienyl)-1H-pyrrol-2-yl]carbonyl}amino)methyl]-N-hydroxynicotinamide]",744 nM,2530 nM,754 nM,181 nM,68.3 nM,151 to 152 °C,–,–
"COc1ccc(-c2cc(-c3ccccc3)[nH]c2C(=O)Nc2ccc(C(=O)NO)o2)cc1 [Example 16, N-{5-[(hydroxyamino)carbonyl]-2-furyl}-3-(4-methoxyphenyl)-5-phenyl-1H-pyrrole-2-carboxamide]",–,–,–,–,–,160 to 162 °C,–,> 10000 nM
"O=C(NO)c1ccc(CNC(=O)c2[nH]c(-c3ccccc3)cc2-c2ccc(F)cc2)o1 [Example 17, 3-(4-fluorophenyl)-N-({5-[(hydroxyamino)carbonyl]-2-furyl}methyl)-5-phenyl-1H-pyrrole-2-carboxamide]",–,–,–,–,–,152 to 153 °C,–,9790 nM
"COc1ccc(-c2cc(-c3ccccc3)[nH]c2C(=O)Nc2cccc(CC(=O)NO)c2)cc1 [Example 18, N-{3-[2-(hydroxyamino)-2-oxoethyl]phenyl}-3-(4-methoxyphenyl)-5-phenyl-1H-pyrrole-2-carboxamide]",–,–,–,–,–,205 to 206 °C,–,> 10000 nM
"COc1ccc(-c2cc(-c3ccccc3)[nH]c2C(=O)Nc2ccc(C(=O)NO)cc2)cc1 [Example 19, N-{4-[(hydroxyamino)carbonyl]phenyl}-3-(4-methoxyphenyl)-5-phenyl-1H-pyrrole-2-carboxamide]",–,–,–,–,–,234 to 235 °C,–,101 nM
"COc1ccc(-c2cc(-c3ccccc3)[nH]c2C(=O)NCc2ccc(C(=O)NCCS)cc2)cc1 [Example 23, 3-(4-methoxyphenyl)-5-phenyl-N-(4-{[(2-sulfanylethyl)amino]carbonyl}benzyl)-1H-pyrrole-2-carboxamide]",–,–,–,–,–,–,–,> 10000 nM
"COc1ccc(-c2cc(-c3ccccc3)[nH]c2C(=O)NCc2ccc(C(=O)Nc3ccccn3)cc2)cc1 [Example 25, 3-(4-methoxyphenyl)-5-phenyl-N-{4-[(pyridin-2-ylamino)carbonyl]benzyl}-1H-pyrrole-2-carboxamide]",> 5000 nM,> 5000 nM,> 5000 nM,> 5000 nM,> 5000 nM,196 °C (dec.),> 5000 nM,–
"O=C(NO)c1ccc(CNC(=O)c2[nH]c(-c3cccs3)cc2-c2ccc(F)cc2)cc1 [Example 31, 3-(4-fluorophenyl)-N-{4-[(hydroxyamino)carbonyl]benzyl}-5-(2-thienyl)-1H-pyrrole-2-carboxamide]",–,–,–,–,58 nM,–,–,49 nM
"O=C(NO)c1ccc(CNC(=O)c2[nH]c(-c3cccs3)cc2-c2ccc(F)cc2)cn1 [Example 32, 3-(4-fluorophenyl)-N-{2-[(hydroxyamino)carbonyl]-5-pyridyl-methyl}-5-(2-thienyl)-1H-pyrrole-2-carboxamide]",–,–,–,–,390 nM,–,–,–
"COc1ccc(-c2cc(-c3ccccc3)[nH]c2C(=O)NCc2ccc(C(=O)NO)cc2)cc1OC [Example 41, N-{4-[(hydroxyamino)carbonyl]benzyl}-3-(3,4-dimethoxyphenyl)-5-phenyl-1H-pyrrole-2-carboxamide]",–,–,–,–,–,–,–,119 nM
"O=C(NO)c1ccc(CNC(=O)c2[nH]c(-c3ccccc3)cc2-c2ccc(Cl)c(Cl)c2)cc1 [Example 44, 3-(3,4-dichlorophenyl)-N-{4-[(hydroxyamino)carbonyl]benzyl}-5-phenyl-1H-pyrrole-2-carboxamide]",–,–,–,–,–,–,–,153 nM
"O=C(NO)c1ccc(CNC(=O)c2[nH]c(-c3ccccc3)cc2-c2cccc(Br)c2)cc1 [Example 45, 3-(3-bromophenyl)-N-{4-[(hydroxyamino)carbonyl]benzyl}-5-phenyl-1H-pyrrole-2-carboxamide]",–,–,–,–,–,–,–,115 nM
"O=C(NO)c1ccc(CNC(=O)c2[nH]c(-c3cccnc3)cc2-c2ccc(F)cc2)cc1 [Example 46, 3-(4-fluorophenyl)-N-{4-[(hydroxyamino)carbonyl]benzyl}-5-(3-pyridinyl)-1H-pyrrole-2-carboxamide]",–,–,–,–,–,–,–,70 nM
"COc1ccc(-c2cc(-c3ccccc3)[nH]c2C(=O)NCCCCCC(=O)NO)cc1 [Kendine 91, N-[6-(hydroxyamino)-6-oxohexyl]-3-(4-methoxyphenyl)-5-phenyl-1H-pyrrole-2-carboxamide, reference compound]",508 nM,1690 nM,613 nM,146 nM,43 nM,–,34.9 nM,–

# More lines, now with the values ahead:
IC50 (Human HDAC1),IC50 (Human HDAC2),IC50 (Human HDAC3/NcoR2),IC50 (Human HDAC8),IC50 [1],melting point,IC50 (Human HDAC6),IC50 [2],SMILES
865 nM,1910 nM,614 nM,559 nM,42 nM,171 to 172 °C,6.6 nM,–,"O=C(NO)c1ccc(CNC(=O)c2[nH]c(-c3cccs3)cc2-c2ccc(O)cc2)cc1 [Example 13, N-{4-[(hydroxyamino)carbonyl]benzyl}-3-(4-hydroxyphenyl)-5-(2-thienyl)-1H-pyrrole-2-carboxamide]"
–,–,–,–,73 nM,–,–,71 nM,"O=C(NO)c1ccc(CNC(=O)c2[nH]c(-c3ccccc3)cc2-c2ccc(F)cc2)cc1 [Example 29, 3-(4-fluorophenyl)-N-{4-[(hydroxyamino)carbonyl]benzyl}-5-phenyl-1H-pyrrole-2-carboxamide]"
–,–,–,–,90 nM,–,–,82 nM,"O=C(NO)c1ccc(CNC(=O)c2[nH]c(-c3ccc(F)cc3)cc2-c2ccc(F)cc2)cc1 [Example 30, 3,5-bis-(4-fluorophenyl)-N-{4-[(hydroxyamino)carbonyl]benzyl}-1H-pyrrole-2-carboxamide]"
103 nM,364 nM,732 nM,> 5000 nM,3270 nM,–,> 5000 nM,–,"Nc1ccccc1NC(=O)c1ccc(CNC(=O)c2[nH]c(-c3ccc(O)cc3)cc2-c2ccsc2)cc1 [Example 33, N-(4-{[(2-aminophenyl)amino)carbonyl]benzyl}-5-(4-hydroxyphenyl)-3-(3-thienyl)-1H-pyrrole-2-carboxamide]"
86 nM,349 nM,770 nM,> 5000 nM,1540 nM,–,1260 nM,–,"Nc1ccccc1NC(=O)c1ccc(CNC(=O)c2[nH]c(-c3ccoc3)cc2-c2ccc(O)cc2)cc1 [Example 34, N-(4-{[(2-aminophenyl)amino)carbonyl]benzyl}-5-(3-furyl)-3-(4-hydroxyphenyl)-1H-pyrrole-2-carboxamide]"
108 nM,433 nM,806 nM,> 5000 nM,4280 nM,–,> 5000 nM,–,"Nc1ccccc1NC(=O)c1ccc(CNC(=O)c2[nH]c(-c3ccc(O)cc3)cc2-c2ccccc2)cc1 [Example 35, N-(4-{[(2-Aminophenyl)amino)carbonyl]benzyl}-5-(4-hydroxyphenyl)-3-phenyl-1H-pyrrole-2-carboxamide]"
222 nM,752 nM,2070 nM,> 5000 nM,4080 nM,–,> 5000 nM,–,"Nc1ccccc1NC(=O)c1ccc(CNC(=O)c2[nH]c(-c3ccsc3)cc2-c2ccc(O)cc2)cc1 [Example 36, N-(4-{[(2-aminophenyl)amino)carbonyl]benzyl}-3-(4-hydroxyphenyl)-5-(3-thienyl)-1H-pyrrole-2-carboxamide]"
–,–,–,–,–,–,–,70 nM,"COc1ccc(-c2cc(-c3ccccc3)[nH]c2C(=O)NCc2ccc(C(=O)NO)cc2)cc1 [Example 38, N-{4-[(hydroxyamino)carbonyl]benzyl}-3-(4-methoxyphenyl)-5-phenyl-1H-pyrrole-2-carboxamide]"
–,–,–,–,–,–,–,170 nM,"O=C(NO)c1ccc(CNC(=O)c2[nH]c(-c3ccccc3)cc2-c2ccc(C(F)(F)F)cc2)cc1 [Example 39, N-{4-[(hydroxyamino)carbonyl]benzyl}-5-phenyl-3-(4-trifluoromethylphenyl)-1H-pyrrole-2-carboxamide]"
–,–,–,–,–,–,–,99 nM,"O=C(NO)c1ccc(CNC(=O)c2[nH]c(-c3ccccc3)cc2-c2ccc(Br)cc2)cc1 [Example 40, 3-(4-bromophenyl)-N-{4-[(hydroxyamino)carbonyl]benzyl}-5-phenyl-1H-pyrrole-2-carboxamide]"
–,–,–,–,–,–,–,129 nM,"O=C(NO)c1ccc(CNC(=O)c2[nH]c(-c3ccccc3)cc2-c2ccc(F)c(F)c2)cc1 [Example 42, 3-(3,4-difluorophenyl)-N-{4-[(hydroxyamino)carbonyl]benzyl}-5-phenyl-1H-pyrrole-2-carboxamide]"
–,–,–,–,–,–,–,62 nM,"O=C(NO)c1ccc(CNC(=O)c2[nH]c(-c3ccccc3)cc2-c2ccc([N+](=O)[O-])cc2)cc1 [Example 43, N-{4-[(hydroxyamino)carbonyl]benzyl}-3-(4-nitrophenyl)-5-phenyl-1H-pyrrole-2-carboxamide]"
–,–,–,–,–,–,–,108 nM,"Cc1ccc(-c2cc(-c3ccc(F)cc3)c(C(=O)NCc3ccc(C(=O)NO)cc3)[nH]2)cc1 [Example 47, 3-(4-fluorophenyl)-N-{4-[(hydroxyamino)carbonyl]benzyl}-5-(4-methylphenyl)-1H-pyrrole-2-carboxamide]"

# — US8685992B2, “Histone deacetylase inhibitors based simultaneously on trisubstituted 1H-pyrroles and aromatic and heteroaromatic spacers” (Universidad del País Vasco, priority 2009, dated 2014)
